Results from ChEMBL document CHEMBL2157997, “β-D-2'-α-F-2'-β-C-Methyl-6-O-substituted 3',5'-cyclic phosphate nucleotide prodrugs as inhibitors of hepatitis C virus replication: a structure-activity relationship study” (Bioorg Med Chem Lett, 2012).

Legend:
[1] = Half life in simulated gastric fluid; assay type: physicochemical
[2] = tested on: Huh-7; assay: Prodrug activation in human HuH7 cells infected with HCV genotype 1b assessed as Tmax of beta-D-2'-deoxy-2'-alpha-fluoro-2'-beta-C-methylguanosine triphosphate level at 100 uM; assay type: cell-based; conditions: huh-7, 100 µM
[3] = Half life in simulated intestinal fluid; assay type: physicochemical
[4] = Half life in human plasma; assay type: ADME, cell-free
[5] = Half life in rat plasma; assay type: ADME, cell-free
[6] = Half life in human liver S9 fraction; assay type: ADME, subcellular
[7] = tested on: Hepatocyte; assay: Prodrug activation in human primary hepatocytes assessed as assessed as Tmax of beta-D-2'-deoxy-2'-alpha-fluoro-2'-beta-C-methylguanosine triphosphate level at 100 uM; assay type: cell-based, Liver
[8] = tested on: Hepatitis C virus; assay: Antiviral activity against Hepatitis C virus genotype 1b replicon infected in Lunet cells by luciferase reporter gene assay; assay type: functional, Hepacivirus hominis
[9] = Cytotoxicity against human HuH7 cells; assay type: cell-based; conditions: Huh-7 cells
[10] = tested on: Hepatitis C virus; assay: Antiviral activity against Hepatitis C virus genotype 1b replicon infected in clone A cells assessed as inhibition of viral replication by RT-PCR analysis; assay type: functional, Hepacivirus hominis
[11] = Half life in rat at 40 mg/kg, po administered QD measured after 7 days; assay type: ADME, organism-based; parameters: dose 40 mg/kg, route oral; conditions: in vivo
[12] = tested on: CCRF-CEM; assay: Cytotoxicity against human CEM cells up to 100 uM after 8 days by MTT assay; assay type: cell-based; conditions: 192 h
[13] = tested on: Huh-7; assay: Cytotoxicity against human HuH7 cells up to 100 uM after 8 days by MTT assay; assay type: cell-based; conditions: huh-7, 192 h
[14] = tested on: Rattus norvegicus; assay: Tlast in rat at 40 mg/kg, po administered QD measured after 1 day; assay type: ADME, organism-based; parameters: dose 40 mg/kg, route oral; conditions: in vivo, 24 h
[15] = AUClast in rat at 40 mg/kg, po administered QD measured after 1 day; assay type: ADME, organism-based; parameters: dose 40 mg/kg, route oral; conditions: plasma
[16] = tested on: Rattus norvegicus; assay: Prodrug conversion in rat liver assessed as beta-D-2'-deoxy-2'-alpha-fluoro-2'-beta-C-methylguanosine triphosphate level at 40 mg/kg, po administered QD as repeated dose measured at 4 hrs post-dosing on day 8; assay type: ADME, organism-based; parameters: dose 40 mg/kg, route oral; conditions: in vivo
[17] = Tmax in rat at 40 mg/kg, po administered QD measured after 1 day; assay type: ADME, organism-based; parameters: dose 40 mg/kg, route oral; conditions: in vivo
[18] = Cmax in rat at 40 mg/kg, po administered QD measured after 7 days; assay type: ADME, organism-based; parameters: dose 40 mg/kg, route oral; conditions: in vivo
[19] = tested on: CCRF-CEM; assay: Mitochondrial toxicity against human CEM cells assessed as decrease in mitochondrial COX2 DNA up to 100 uM after 14 days by RT-PCR analysis; assay type: cell-based; conditions: 336 h
[20] = tested on: HepG2; assay: Mitochondrial toxicity against human HepG2 cells assessed as decrease in ribosomal DNA up to 100 uM after 14 days by RT-PCR analysis; assay type: cell-based; conditions: hepg2, 336 h
[21] = tested on: Rattus norvegicus; assay: Prodrug activation in rat liver assessed as beta-D-2'-deoxy-2'-alpha-fluoro-2'-beta-C-methylguanosine diphosphate level at 40 mg/kg, po administered QD as repeated dose measured at 4 hrs post-dosing on day 8; assay type: organism-based; parameters: dose 40 mg/kg, route oral; conditions: in vivo
[22] = Half life in rat at 40 mg/kg, po administered QD measured after 1 day; assay type: ADME, organism-based; parameters: dose 40 mg/kg, route oral; conditions: in vivo
[23] = tested on: Rattus norvegicus; assay: Prodrug activation in rat liver assessed as free nucleoside level at 40 mg/kg, po administered QD as repeated dose measured at 4 hrs post-dosing on day 8; assay type: organism-based; parameters: dose 40 mg/kg, route oral; conditions: in vivo
[24] = AUC (infinity) in rat at 40 mg/kg, po administered QD measured after 7 days; assay type: ADME, organism-based; parameters: time infinity, dose 40 mg/kg, route oral; conditions: plasma
[25] = tested on: Rattus norvegicus; assay: Prodrug activation in rat liver assessed as total nucleotide level at 40 mg/kg, po administered QD as repeated dose measured at 4 hrs post-dosing on day 8; assay type: organism-based; parameters: dose 40 mg/kg, route oral; conditions: in vivo
[26] = Cmax in rat at 40 mg/kg, po administered QD measured after 1 day; assay type: ADME, organism-based; parameters: dose 40 mg/kg, route oral; conditions: in vivo
[27] = tested on: CCRF-CEM; assay: Mitochondrial toxicity against human CEM cells assessed as decrease in ribosomal DNA up to 100 uM after 14 days by RT-PCR analysis; assay type: cell-based; conditions: 336 h
[28] = tested on: HepG2; assay: Mitochondrial toxicity against human HepG2 cells assessed as decrease in mitochondrial COX2 DNA up to 100 uM after 14 days by RT-PCR analysis; assay type: cell-based; conditions: hepg2, 336 h
[29] = tested on: HepG2; assay: Cytotoxicity against human HepG2 cells up to 100 uM after 8 days by MTT assay; assay type: cell-based; conditions: hepg2, 192 h
[30] = tested on: Hepatitis C virus; assay: Antiviral activity against Hepatitis C virus expressing NS5B S282T mutant by cell-based replicon assay; assay type: functional, Hepacivirus hominis
[31] = AUClast in rat at 40 mg/kg, po administered QD measured after 7 days; assay type: ADME, organism-based; parameters: dose 40 mg/kg, route oral; conditions: plasma
[32] = tested on: BXPC-3; assay: Cytotoxicity against human BxPC3 cells up to 100 uM after 8 days by MTT assay; assay type: cell-based; conditions: bxpc-3, 192 h
[33] = Tmax in rat at 40 mg/kg, po administered QD measured after 7 days; assay type: ADME, organism-based; parameters: dose 40 mg/kg, route oral; conditions: in vivo
[34] = AUC (infinity) in rat at 40 mg/kg, po administered QD measured after 1 day; assay type: ADME, organism-based; parameters: time infinity, dose 40 mg/kg, route oral; conditions: plasma
[35] = tested on: Rattus norvegicus; assay: Tlast in rat at 40 mg/kg, po administered QD measured after 7 days; assay type: ADME, organism-based; parameters: dose 40 mg/kg, route oral; conditions: in vivo, 168 h
[36] = tested on: Rattus norvegicus; assay: Prodrug activation in rat liver assessed as beta-D-2'-deoxy-2'-alpha-fluoro-2'-beta-C-methylguanosine monophosphate level at 40 mg/kg, po administered QD as repeated dose measured at 4 hrs post-dosing on day 8; assay type: organism-based; parameters: dose 40 mg/kg, route oral; conditions: in vivo
[37] = tested on: Hepatitis C virus; assay: Ratio of PSI-352938 EC90 to compound EC90 for Hepatitis C virus genotype 1b infected in clone A cells; assay type: functional, Hepacivirus hominis

Structure (SMILES): COc1nc(N)nc2c1ncn2[C@@H]1O[C@H](COP(=O)(N[C@@H](C)C(=O)OC(C)C)Oc2ccccc2)[C@@H](O)[C@@]1(C)F (some centres undefined)
- half-life [1]: 16 h
- Tmax [2]: 24 h
- half-life [3]: > 20 h
- half-life [4]: > 24 h
- half-life [5]: < 0.02 h
- half-life [6]: 0.44 h
- Tmax [7]: 8 h

Structure (SMILES): COc1nc(N)nc2c1ncn2[C@@H]1O[C@@H]2COP(=O)(OC(C)C)O[C@H]2[C@@]1(C)F (some centres undefined)
- half-life [1]: > 20 h
- EC90 [8]: 0.0258 µM
- half-life [3]: > 20 h
- half-life [4]: > 24 h
- half-life [5]: 5.6 h
- CC90 [9]: > 100 µM
- half-life [6]: > 24 h
- EC90 [10]: 0.68 µM

Structure (SMILES): CCOP1(=O)OC[C@H]2O[C@@H](n3cnc4c(OC)nc(N)nc43)[C@](C)(F)[C@@H]2O1 (some centres undefined)
- EC90 [8]: 0.0358 µM
- CC90 [9]: > 10 µM

Structure (SMILES): COc1nc(N)nc2c1ncn2[C@@H]1O[C@@H]2COP(=O)(OCc3ccccc3)O[C@H]2[C@@]1(C)F (some centres undefined)
- EC90 [8]: 0.07 µM
- CC90 [9]: > 10 µM

Structure (SMILES): COc1nc(N)nc2c1ncn2[C@@H]1O[C@@H]2COP(=O)(O)O[C@H]2[C@@]1(C)F
- EC90 [8]: 0.18 µM
- CC90 [9]: > 100 µM

Structure (SMILES): CC(C)Oc1nc(N)nc2c1ncn2[C@@H]1O[C@@H]2COP(=O)(OC3CCCC3)O[C@H]2[C@@]1(C)F (some centres undefined)
- half-life [11]: 3.32 h
- Activity [12]: Non-toxic
- Activity [13]: Non-toxic
- half-life [1]: 9 h
- Tlast [14]: 10.7 h
- AUC(0-t) at 24 h [15]: 0.34 µg·h/mL
- Drug metabolism [16]: 2.02 nmol/g
- Tmax [17]: 3.67 h
- Cmax [18]: 0.05 µg/mL
- Activity [19]: Non-toxic
- Activity [20]: Non-toxic
- EC90 [8]: 0.06 µM
- Tmax [2]: 72 h
- half-life [3]: 15 h
- Drug metabolism [21]: 17.61 nmol/g
- half-life [22]: 2.83 h
- Drug metabolism [23]: 7.47 nmol/g
- AUC(0-inf) [24]: 0.21 µg·h/mL
- half-life [4]: > 23.4 h
- half-life [5]: > 24 h
- Drug metabolism [25]: 40.5 nmol/g
- Cmax [26]: 0.08 µg/mL
- Activity [27]: Non-toxic
- Activity [28]: Non-toxic
- CC90 [9]: > 100 µM
- Activity [29]: Non-toxic
- half-life [6]: > 24 h
- EC90 [30]: 0.023 µM
- AUC(0-t) at 168 h [31]: 0.17 µg·h/mL
- Activity [32]: Non-toxic
- Tmax [33]: 2.33 h
- AUC(0-inf) [34]: 0.77 µg·h/mL
- EC90 [10]: 0.184 µM
- Tlast [35]: 8 h
- Drug metabolism [36]: 20.85 nmol/g
- Tmax [7]: 24 h

Structure (SMILES): CC(C)Oc1nc(N)nc2c1ncn2[C@@H]1O[C@@H]2COP(=O)(OC3CCC3)O[C@H]2[C@@]1(C)F (some centres undefined)
- half-life [1]: 2.6 h
- EC90 [8]: 0.05 µM
- half-life [3]: 4.2 h
- half-life [4]: 11.7 h
- half-life [5]: 8.6 h
- CC90 [9]: > 100 µM
- half-life [6]: 6.3 h
- EC90 [10]: 0.224 µM

Structure (SMILES): CC(C)Oc1nc(N)nc2c1ncn2[C@@H]1O[C@@H]2COP(=O)(OC3CCCCC3)O[C@H]2[C@@]1(C)F (some centres undefined)
- EC90 [8]: 0.3 µM

Structure (SMILES): CC(C)Oc1nc(N)nc2c1ncn2[C@@H]1O[C@@H]2COP(=O)(OC(C)C)O[C@H]2[C@@]1(C)F (some centres undefined)
- half-life [1]: > 20 h
- EC90 [8]: 0.74 µM
- half-life [3]: > 20 h
- half-life [4]: > 24 h
- half-life [5]: > 24 h
- CC90 [9]: > 100 µM
- half-life [6]: 16.3 h
- EC90 [10]: 0.677 µM

Structure (SMILES): CCOP1(=O)OC[C@H]2O[C@@H](n3cnc4c(OC(C)C)nc(N)nc43)[C@](C)(F)[C@@H]2O1 (some centres undefined)
- EC90 [8]: 2.25 µM

Structure (SMILES): CC(C)Oc1nc(N)nc2c1ncn2[C@@H]1O[C@@H]2COP(=O)(OCc3ccccc3)O[C@H]2[C@@]1(C)F (some centres undefined)
- EC90 [8]: 0.04 µM
- CC90 [9]: > 100 µM

Structure (SMILES): CC(C)Oc1nc(N)nc2c1ncn2[C@@H]1O[C@@H]2COP(=O)(O)O[C@H]2[C@@]1(C)F
- EC90 [8]: > 10 µM

Structure (SMILES): CCCOP1(=O)OC[C@H]2O[C@@H](n3cnc4c(OCC)nc(N)nc43)[C@](C)(F)[C@@H]2O1 (some centres undefined)
- CC90 [9]: > 100 µM
- EC90 [10]: 13.3 µM

Structure (SMILES): COc1nc(N)nc2c1ncn2[C@@H]1O[C@@H]2COP(=O)(OC3CCC3)O[C@H]2[C@@]1(C)F (some centres undefined)
- half-life [11]: 1.43 h
- Activity [12]: Non-toxic
- Ratio [37]: >=10
- Activity [13]: Non-toxic
- half-life [1]: < 4 h
- Tlast [14]: 20 h
- AUC(0-t) at 24 h [15]: 9.48 µg·h/mL
- Drug metabolism [16]: 3.69 nmol/g
- Tmax [17]: 1.67 h
- Cmax [18]: 5.17 µg/mL
- Activity [19]: Non-toxic
- Activity [20]: Non-toxic
- EC90 [8]: 0.046 µM
- Tmax [2]: 48 h
- half-life [3]: < 6 h
- Drug metabolism [21]: 32.36 nmol/g
- half-life [22]: 1.32 h
- Drug metabolism [23]: 15.5 nmol/g
- AUC(0-inf) [24]: 13.9 µg·h/mL
- half-life [4]: 18.3 h
- half-life [5]: 15.8 h
- Drug metabolism [25]: 65.93 nmol/g
- Cmax [26]: 2.08 µg/mL
- Activity [27]: Non-toxic
- Activity [28]: Non-toxic
- CC90 [9]: > 100 µM
- Activity [29]: Non-toxic
- half-life [6]: 2.6 h
- EC90 [30]: 0.067 µM
- AUC(0-t) at 168 h [31]: 13.9 µg·h/mL
- Activity [32]: Non-toxic
- Tmax [33]: 4 h
- AUC(0-inf) [34]: 9.5 µg·h/mL
- EC90 [10]: 0.135 µM
- Tlast [35]: 20 h
- Drug metabolism [36]: 29.9 nmol/g
- Tmax [7]: > 48 h

Structure (SMILES): COc1nc(N)nc2c1ncn2[C@@H]1O[C@@H]2COP(=O)(OC3CCCCC3)O[C@H]2[C@@]1(C)F (some centres undefined)
- EC90 [8]: 0.039 µM
- CC90 [9]: > 10 µM
